Results: BindingDB's records for doi:10.1016/S0960-894X(96)00247-8 (1996)

Tests used:
[1] = molecular target: Glutamate-cysteine ligase gshA (Escherichia coli) (UniProt P0A6W9); assay: Tested for inhibition of Escherichia coli gamma-glutamylcysteine synthetase at a concentration of 5.1 uM
[2] = molecular target: Glutamate-cysteine ligase gshA (Escherichia coli) (UniProt P0A6W9); assay: Tested for inhibition of Escherichia coli gamma-glutamylcysteine synthetase at a concentration of 5.7 uM

Sequence of Glutamate-cysteine ligase gshA (Escherichia coli) (P0A6W9 whole entry, looked up): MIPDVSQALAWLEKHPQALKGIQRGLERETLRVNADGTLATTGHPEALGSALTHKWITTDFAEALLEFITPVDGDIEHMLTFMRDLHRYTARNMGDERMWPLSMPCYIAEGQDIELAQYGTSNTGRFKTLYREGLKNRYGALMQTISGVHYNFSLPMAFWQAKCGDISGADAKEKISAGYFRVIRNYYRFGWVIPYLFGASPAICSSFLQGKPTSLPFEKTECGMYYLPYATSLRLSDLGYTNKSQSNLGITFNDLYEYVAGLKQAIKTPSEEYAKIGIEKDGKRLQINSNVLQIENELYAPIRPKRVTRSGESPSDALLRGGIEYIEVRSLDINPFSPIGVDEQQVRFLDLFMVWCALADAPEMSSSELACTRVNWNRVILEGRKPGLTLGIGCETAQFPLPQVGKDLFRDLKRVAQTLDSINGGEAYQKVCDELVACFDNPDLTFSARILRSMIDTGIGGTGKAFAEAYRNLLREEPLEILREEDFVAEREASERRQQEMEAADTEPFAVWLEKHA

SMILES | Ki [1] [µM] | Ki [2] [µM]
CCCCS(=N)(=O)CCC(=N)C(=O)O (configuration not stated) | 49.3 | 
CCC(CP(=O)(O)CC[C@H](N)C(=O)O)C(=O)O (stereo partly drawn) [(2S)-2-ammonio-4-[(2-carboxylatobutyl)phosphinato]butanoate] |  | 4.95
